The values below come from article PMC10541411 (Nature Communications, 2023).

The test system of assay [1] is WT 53BP1^FFR IRIF in U2OS cells. Nature of the assay: 53BP1FFR ionizing radiation-induced foci (IRIF) formation, immunofluorescence, WT. It is filed as cell-based, Homo Sapiens. To be noted: 1 Gy X-ray, different concentrations of UNC3474. The text has this: (§1) The foci-forming region (FFR; residues 1220–1711) of wild-type 53BP1 and mutants E1549P/D1550N (53BP1^FFR-PN) and E1549C/E1567C (53BP1^FFR-CC) were inserted into the retroviral vector POZ. The primers used to introduce the E1549P/D1550N mutations are: […] (forward) and […] (reverse). The primers used to introduce the E1549C/E1567C mutations are: […] (forward) and […] (reverse). The 53BP1^FFR constructs were stably expressed at a moderate level in U2OS cells. To probe the effect of UNC3474 on 53BP1^FFR IRIF formation, U2OS cells were grown on glass coverslips, pre-incubated for 1 h with various concentrations of UNC3474 and exposed to 1 Gy of X-ray radiation. After 1 h, the cells were fixed in 4% formaldehyde in PBS for 15 min at room temperature and blocked and permeabilized for 1 h in PBS containing 0.3% Triton X-100, 1% BSA, 10% fetal bovine serum. […]
(§2) Cell samples were subjected to z-stack scanning with a total depth of 5 μm to comprehensively capture all 53BP1^FFR and γH2A.X IRIF within the cell nuclei, which were fluorescently labeled with DAPI. […] To assess the quantification of 53BP1^FFR and γH2A.X foci per nuclei, a customized CellProfiler (version 3.0)[68] pipeline was employed. […]

For assay [2], the system named is 53BP1^FFR-CC IRIF in U2OS cells. Nature of the assay: 53BP1FFR ionizing radiation-induced foci (IRIF) formation, immunofluorescence, CC mutant. To be noted: 1 Gy X-ray, different concentrations of UNC3474. It is filed as cell-based, Homo Sapiens.
Description: as §1, §2

Assay [3] addresses T1, 53BP1^TT-PN (E1549P/D1550N) (Homo sapiens, UniProt Q12888, D1550N/E1549P).
T1 construct: The tandem Tudor domain of 53BP1 (53BP1^TT, residues 1481–1603) was purified as previously described; made in house
Put plainly: 1H-15N HSQC NMR titration of 15N-labeled 53BP1TT-PN. The format is binding. The conditions noted are these: up to fourfold molar excess. Here is the method:
(§3) All NMR data were collected at 25 °C on a 700 MHz Bruker Avance III spectrometer equipped with a cryoprobe. Data were processed and analyzed with NMRPipe[54] and NMRViewJ[55],[56].
(§4) To probe chemical shift perturbations, ^1H-^15N HSQC spectra were acquired on the following samples: 0.2 mM ^15N-labeled 53BP1^TT WT and 53BP1^TT-PN in 25 mM sodium phosphate, pH 7.0, 1.5 mM NaN3, 0.3 mM DSS, 90% H2O/10% D2O, free and incrementally titrated with various non-labeled inhibitors (UNC1078, UNC1118, UNC2170, UNC2991, UNC3474), as well as with H4KC20me2 and p53K382me2 peptides. Chemical shift perturbations (Δδ) were calculated using the Eq. (1):1 Δδ=(ΔN/5)^2+ΔH^2 where ΔN and ΔH are the corresponding differences in ^15N and ^1H chemical shifts between the bound and free forms of 53BP1.

Assay [4] concerns the target T2, 53BP1^TT (Homo sapiens, UniProt Q12888).
T2 construct: The tandem Tudor domain of 53BP1 (53BP1^TT, residues 1481–1603) was purified as previously described; made in house; host or cells: E. coli (only for the SAXS sample)
Put plainly: Sedimentation velocity analytical ultracentrifugation (AUC). To be noted: 53BP1TT 20 μM, UNC3474 10-200 μM. Here is the method: The AUC experiments were performed at 20 °C in 20 mM sodium phosphate, pH 7.5, with 50 mM NaCl. 53BP1^TT was at a concentration of 20 μM. Measurements were recorded on an Optima analytical ultracentrifuge (Beckman Coulter) with an An-50 Ti analytical 8-place rotor using absorbance detection at 280 nm. Sample-filled AUC cells assembled with 12-mm charcoal-filled Epon centerpieces and quartz windows were subjected to 3 h of equilibration at 20 °C under vacuum prior to initiating the experiments at 50,000 rpm (corresponding to 182,000 × g at the cell center and 201,600 × g at the cell bottom) with continuous data acquisition for 20 h (200 scans) at 20 °C. The AUC data were analyzed with the c(s) model in SEDFIT[66] using a partial specific volume of 0.7335 mL/g.

For assay [5], the target named is T2, 53BP1^TT. Nature of the assay: NMR 15N relaxation measurements (R1, R2, NOE). To be noted: 1 mM 15N-labeled 53BP1TT, saturating amounts of small molecule. Here is the method:
The NMR relaxation measurements were carried out with 1 mM ^15N-labeled 53BP1^TT, 53BP1^TT-PN, and 53BP1^TT in the presence of saturating amounts of UNC3474 and UNC1118 in 25 mM sodium phosphate, pH 7.0, 100 mM NaCl, 1.5 mM NaN3, 0.3 mM DSS, 90% H2O/10% D2O, using standard experiments[58],[59]. The longitudinal and transverse ^15N relaxation rates R1 and R2 were determined using 12 and 14 relaxation delay times of 0.1–2 s and 4–120 ms, respectively. The first data point of each set of measurements was repeated for error assessment. The ^15N-{^1H} nuclear Overhauser ratios were obtained from a reference experiment without proton irradiation and a steady-state experiment with proton irradiation for 3 s.

Another assay has as its target 53BP1^TT WT (Homo sapiens, UniProt Q12888). Nature of the assay: 1H-15N HSQC NMR titration of 15N-labeled wild-type 53BP1TT. The format is binding. Set-up: The tandem Tudor domain of 53BP1 (53BP1^TT, residues 1481–1603) was purified as previously described; made in house; host or cells: E. coli (only for the SAXS sample). The conditions noted are these: 15N-labeled WT 53BP1TT. Here is the method:
as §3, §4

T2 sequence (Q12888 1481-1603): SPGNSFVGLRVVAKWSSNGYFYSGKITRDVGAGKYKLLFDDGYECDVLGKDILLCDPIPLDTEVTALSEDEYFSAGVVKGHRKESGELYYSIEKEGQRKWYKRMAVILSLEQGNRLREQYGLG
T1 sequence (Q12888 1481-1603 E1549P/D1550N): as the sequence (Q12888 1481-1603) above, with E69P, D70N counted along it
Sequence of 53BP1^TT WT (Q12888 1481-1603): as the sequence (Q12888 1481-1603) above

Consider `CC(C)c1cccc(C(=O)NCCCNC(C)(C)C)c1` [UNC3474], for which the “WT 53BP1FFR IRIF formation” value in assay [1] is “inhibited in a dose-dependent manner”. For the same compound, in assay [2], the “53BP1FFR-CC IRIF” value is “no significant change”. The “interaction with 53BP1TT-PN (1H-15N HSQC titration)” value in assay [3] is on record as “did not interact”. Moreover, the “change in sedimentation coefficient of 53BP1TT” value on 53BP1^TT [4] is “consistent with the dimerization of 53BP1^TT”. Also, at 53BP1^TT [5], the “effect on 15N relaxation rates of 53BP1TT” value is given as “increase in R2 relaxation rates”. On 53BP1^TT WT, the “changes in signal positions in the 1H-15N HSQC spectrum of 53BP1TT upon titration” value was “slow exchange on the chemical shift time scale”.
